Assay results taken from PMC4929710, “Specificity and mechanism of action of alpha-helical membrane-active peptides interacting with model and biological membranes by single-molecule force spectroscopy” (Scientific Reports, 2016).
Read-outs that look alike come from different tables or passages of the source.

How the values were obtained:
[1] = tested on: P. aeruginosa ATCC27853; type: cell-based
Procedure: (§1) Then, 10 μL of peptides was added. […] All assays were repeated in triplicate.

[2] = tested on: S. aureus ATCC25923; type: cell-based
Procedure: as §1

[3] = tested on: S. epidermidis ATCC12228; type: cell-based
Procedure: as §1

[4] = tested on: gram-positive bacteria (S. aureus and S. epidermidis); type: cell-based
Procedure: as §1

[5] = tested on: gram-negative bacteria (P. aeruginosa and E. coli); type: cell-based
Procedure: as §1

[6] = tested on: E. coli ATCC25922; type: cell-based
Procedure: as §1

[7] = tested on: HeLa cells; experiment: Single-molecule force spectroscopy (AFM); type: binding, human; settings: RMS ± SD; N-terminal Cys peptide on AFM tip via PEG linker
From the text: (§2) Based on the above results, five selected peptides of V13L, A12L/A20L, V13K, V13E, and L6A/L17A, with different hydrophobicity and charges were used to examine the interaction probabilities and forces between peptides and membranes, both on the lipid model membranes and on the biological membranes by SMFS based on AFM, respectively. A cysteine residue was covalently introduced to the N-terminus of peptides and provided a free sulfhydryl group to modify the tips of the AFM. A PEG linker was used since each heterobifunctional PEG–NHS linker (approximately 20 nm) can only covalently connect with a single peptide molecule, which guarantees a single-molecule interaction between MAPs and biological membranes in real time[19]. If an AFM tip was functionalized with two or more peptides, where several peaks were recorded. In the reports, data with two peaks were not collected and calculated. For one force–distance cycle, one peptide-functionalized AFM tip approached the model and biological membranes right on the top, and the subsequent tip was withdrawn from the cell membranes to retrace the process. […] In addition, blocking experiment was used to test the specificity of these force events. As the electrostatic attraction is one important reason for peptides approaching model membranes and biological membranes, the Tris-HCl buffer including plenty amino groups[20] was injected into the working chamber and inhibits the interactions between MAPs and model membranes/biological membranes. […] The unbinding forces of V13L against different model membranes and biological membranes with the loading rate of 1 × 10^5 pN s^−1 are shown in Fig. 3c,f–h,j–l.
(§3) The AFM tip was first washed with concentrated sulfuric acid and hydrogen peroxide (3:1, v:v). The tip was dried using ozone (O3) for 15 min and dried overnight in a dryer. The tip was then modified with APTES under an argon atmosphere and the peptide connected with a PEG–NHS linker. Finally, the AFM tip linked with the peptide was washed three times in PBS and kept at 4 °C. A 500-μL LUV suspension was deposited on Lys coated glass and the LUVs were absorbed on the surface for 1 h at 65 °C [9][29]. A. laidlawii was deposited on poly-L-lysine coated glass and absorbed for 1 h at 37 °C [30]. The 3T3-L1 and HeLa cells were cultured on glass slides in Dulbecco’s modified Eagle’s medium (DMEM). Before performing force spectroscopy experiments, the cells were washed with fresh DMEM three times to remove the cell metabolites. Isolation of chicken erythrocytes was carried out at room temperature. Then the erythrocytes were washed three times in 2 mL PBS buffer by centrifuge (1,000 rpm) and resuspended in PBS buffer. 200 μL erythrocyte suspension were deposited onto poly-L-lysine coated glass for 20 min[10]. […]

[8] = tested on: PC/SM/PE/PS/Chol (4.35:4.35:1:0.3:1 w/w) LUVs; experiment: Tryptophan fluorescence with LUVs; type: binding; settings: PC/SM/PE/PS/Chol (4.35:4.35:1:0.3:1 w/w) LUVs versus HEPES buffer, 25 °C
From the text: (§4) In order to investigate the interaction between peptides and difference types of cell membranes, three different LUVs were used to mimic a prokaryotic cell membrane (PC/PG), a normal eukaryotic cell membrane (PC/Chol), and a cancer cell membrane (PC/SM/PE/PS/Chol). Tryptophan residue in the peptide sequence was used as a fluorescent probe to examine the interaction of peptides with model membranes. […] For example, in the PC/PG (7:3 w/w) anionic prokaryotic mimicking model membrane, peptides V13L and A12L/A20L had the strongest hydrophobicity with blue shift values of approximately 37 nm and 38 nm, respectively. Conversely, peptide V13E with a negative charge of glutamic acid residue, and peptide L6A/L17A with the lowest hydrophobicity had blue shift values of approximately 18 nm and 17 nm, respectively. […] In addition, within PC/SM/PE/PS/Chol (4.35:4.35:1:0.3:1 w/w) as a cancer-mimicking model membrane, the same results could be obtained in that peptide hydrophobicity correlates with anticancer activity and the blue shift values of peptides.
(§5) In accordance with previously described methods, LUVs were prepared with PC/PG (7:3 w/w), PC/Chol (8:1 w/w), and PC/SM/PE/PS/Chol (4.35:4.35:1:0.3:1 w/w) to mimic prokaryotic cell, […], membranes, respectively. Lipids using the freeze-thaw method as described previously, followed by extrusion through […] double-stacked nuclepore filters using an Mini-Extruder (Avanti Polar Lipids, Inc.)[11][27].
(§6) Three kinds of LUVs were prepared and cultured in HEPES buffer (pH 7.4, 10 mM HEPES, 150 mM NaCl) and the molar concentration was adjusted to 100 μM. A total of 14 μL of 100 μM MAPs was mixed with 686 μL of 100 μM liposomes at 25 °C for 10 min. A Shimadzu RF-5301PC, (excitation wavelength of […], emission wavelength of 300–450 nm) was used to measure the tryptophan fluorescence. Potassium iodide (KI) as a quencher was added to the previous reaction system for a final concentration of 0.02–0.08 M, respectively. The experimental data were plotted according to the Stern–Volmer equation F0/F = 1 + Ksv[Q], where F0 and F are the fluorescence intensity in the absence or presence of a quencher at concentration [Q], respectively, and Ksv is the Stern–Volmer quenching constant.

[9] = tested on: PC/Chol (8:1 w/w) LUVs; experiment: Tryptophan fluorescence with LUVs; type: binding; settings: PC/Chol (8:1 w/w) LUVs versus HEPES buffer, 25 °C
From the text: as §4, §5, §6

[10] = tested on: A. laidlawii cells; experiment: Single-molecule force spectroscopy (AFM); type: binding, Acholeplasma laidlawii; settings: RMS ± SD; N-terminal Cys peptide on AFM tip via PEG linker
From the text: as §2, §3

[11] = MH medium, 5 × 10^5 CFU/mL, 24 h, 37 °C, triplicate
[12] = geometric mean of MIC values from two gram-positive strains
[13] = geometric mean of MIC values from two gram-negative strains

Compound | G− MIC P. aeruginosa ATCC27853 ([1]; ATCC27853, 24 h) [µM] | G+ MIC S. aureus ATCC25923 ([2]; ATCC25923, 24 h) [µM] | G+ MIC S. epidermidis ATCC12228 ([3]; ATCC12228, 24 h) [µM] | G+ MIC GM [4] [µM] | G− MIC GM [5] [µM] | G− MIC E. coli ATCC25922 ([6]; ATCC25922, 24 h) [µM] | Unbinding force HeLa [7] [pN] | PC/SM/PE/PS/Chol Blueshift [8] [nm] | PC/Chol Blue shift [9] [nm] | Unbinding force A. laidlawii [10] [pN] | G− MIC P. aeruginosa ATCC27853 [1, 11] [µM] | G+ MIC S. aureus ATCC25923 [2, 11] [µM] | G+ MIC S. epidermidis ATCC12228 [3, 11] [µM] | G+ MIC GM [4, 12] [µM] | G− MIC GM [5, 13] [µM] | G− MIC E. coli ATCC25922 [6, 11] [µM]
Ac-KWKSFLKTFKSAEKTVLHTALKAISS-NH2 [Peptide V13E] | 125 | 125 | 125 | 125 | 89.44 | 64 | 36 ± 14 | 23 | 1 | 55 ± 12 | – | – | – | – | – | –
Ac-KWKSFLKTFKSALKTVLHTALKAISS-NH2 [Peptide V13L] | 8 | 8 | 2 | 4 | 5.66 | 4 | 31 ± 10 | – | 11 | 27 ± 9 | – | – | – | – | – | –
CC[C@H](C)[C@H](NC(=O)[C@H](C)NC(=O)[C@H](CCCCN)NC(=O)[C@H](CC(C)C)NC(=O)[C@H](C)NC(=O)[C@@H](NC(=O)[C@H](Cc1cnc[nH]1)NC(=O)[C@H](CC(C)C)NC(=O)[C@@H](NC(=O)[C@@H](NC(=O)[C@H](CCCCN)NC(=O)[C@H](CCCCN)NC(=O)[C@H](C)NC(=O)[C@H](CO)NC(=O)[C@H](CCCCN)NC(=O)[C@H](Cc1ccccc1)NC(=O)[C@@H](NC(=O)[C@H](CCCCN)NC(=O)[C@H](CC(C)C)NC(=O)[C@H](Cc1ccccc1)NC(=O)[C@H](CO)NC(=O)[C@H](CCCCN)NC(=O)[C@H](Cc1c[nH]c2ccccc12)NC(=O)[C@H](CCCCN)NC(C)=O)[C@@H](C)O)[C@@H](C)O)C(C)C)[C@@H](C)O)C(=O)N[C@@H](CO)C(=O)N[C@@H](CO)C(N)=O [Peptide V13K] | – | – | – | – | – | – | 52 ± 20 | 27 | 4 | 51 ± 18 | 8 | 32 | 4 | 11.31 | 8 | 8
Ac-KWKSFAKTFKSAKKTVAHTALKAISS-NH2 [L6A/L17A] | – | – | – | – | – | – | 39 ± 11 | 21 | 0 | 41 ± 15 | 125 | 125 | 125 | 125 | 125 | 125
